Experiment [1] relates to Human pancreatic cancer cell line AsPC-1. Put plainly: Measurement of AsPC-1 cell growth inhibition (AsPC-1 CGI). The format is cell-based. The following applies: 96 h. The method, boiled down:
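AsPC-1 cells in 15% FBS RPMI-1640 were exposed to test compound for 96 hours at 37° C, with CellTiter-Glo as endpoint.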

The target of experiment [2] is T1, Kras and SOS1 (biotin-tagged human Kras loaded with GDP, His-tagged human SOS1) (Homo sapiens, UniProt P01116, G12D).
T1 construct: made in house; host or cells: E. coli (stated for Kras only)
T1 sequence (P01116 1-188 isoform P01116-2 G12D): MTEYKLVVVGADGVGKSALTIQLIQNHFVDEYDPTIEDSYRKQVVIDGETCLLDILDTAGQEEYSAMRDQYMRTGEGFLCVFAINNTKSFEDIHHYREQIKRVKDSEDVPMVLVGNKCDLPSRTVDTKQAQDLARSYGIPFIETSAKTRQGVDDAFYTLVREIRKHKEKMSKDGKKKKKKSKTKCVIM
Put plainly: Protein-protein interaction inhibition between Kras and SOS1 (KrasGl2D-SOS PPI) using AlphaScreen. The format is binding. To be noted: AlphaScreen; biotin-tagged human Kras loaded with GDP, His-tagged human SOS1; read-out: KRAS G12D-SOS PPI IC50. Summed up:
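Binding between SOS1 and Kras is detected as bead-proximity luminescence: illuminate Ni-conjugated donors (680 nm), collect 520-620 nm emission from streptavidin-conjugated acceptors; Kras carries biotin and GDP loaded after purification, SOS1 carries a His tag.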

Each structure is given as a SMILES string. Starred links: 1 amine or outer side, 2 acyl side, 3 side chain; linkers in the order of their positions; H or OH if unused. Positions of bridges follow the written chain, without caps; N, C: chain ends. Non-standard residues stand in square brackets, D forms with d. Residues, ends and D or L forms follow the SMILES beside them. *: point of attachment. hPhe(3-Cl-4-CF3) = N[C@@H](CCc1ccc(C(F)(F)F)c(Cl)c1)C(=O)O; X19 = CC(C)(C)Oc1cc(CC[C@H](N[*:1])C(=O)[*:2])cc(Cl)c1Cl; X28 = CCCCOc1cc(CC[C@H](N[*:1])C(=O)[*:2])cc(Cl)c1Cl; NMePhe(4-CF3) = CN[C@@H](Cc1ccc(C(F)(F)F)cc1)C(=O)O; X29 = N#Cc1cc(CC[C@H](N[*:1])C(=O)[*:2])cc(Cl)c1Cl; X15 = COc1cc(CC[C@H](N[*:1])C(=O)[*:2])cc(Cl)c1Cl; X49 = Cn1ccc2cc(CC[C@H](N[*:1])C(=O)[*:2])ccc21; 3Oxa8azabicyclo(3.2.1)octane = C1CC2COCC1N2*; NMePhe(4-Me) = CN[C@@H](Cc1ccc(C)cc1)C(=O)O; NMeAla(cPent) = CN[C@@H](CC1CCCC1)C(=O)O; NMeGly(cPent) = CN[C@H](C(=O)O)C1CCCC1; NMeCha = CN[C@@H](CC1CCCCC1)C(=O)O; NMeChg = CN[C@H](C(=O)O)C1CCCCC1; Gly(cBu) = N[C@H](C(=O)O)C1CCC1; NMeD = CN[C@@H](CC(=O)O)C(=O)O; NMeL = CN[C@@H](CC(C)C)C(=O)O; NMeNva = CCC[C@H](NC)C(=O)O; NMeV = CN[C@H](C(=O)O)C(C)C; NMeAbu = CC[C@H](NC)C(=O)O; NMeS = CN[C@@H](CO)C(=O)O; Morpholide = C1CN(*)CCO1; NMeA = CN[C@@H](C)C(=O)O; Piperidide = C1CCN(*)CC1; Pyrrolidide = C1CCN(*)C1; Ac5c = NC1(C(=O)O)CCCC1; Aze = O=C(O)[C@@H]1CCN1; Sar = CNCC(=O)O; Propyl = CCC*

Turning to `CC(C)C[C@H]1C(=O)N[C@@H](C2CCC2)C(=O)N(C)CC(=O)N(C)CC(=O)N(C)[C@@H](CC2CCCCC2)C(=O)N(C)CC(=O)N[C@@H](CCc2ccc(C(F)(F)F)c(Cl)c2)C(=O)N2CCC[C@H]2C(=O)NC2(CCCC2)C(=O)N(C)[C@@H](C2CCCCC2)C(=O)N(C)[C@H](C(=O)N2CCCC2)CC(=O)N1C` [Compound 1988] ([NMeL][Gly(cBu)][Sar][Sar][NMeCha][Sar][hPhe(3-Cl-4-CF3)]P[Ac5c][NMeChg][NMeD]-Pyrrolidide; lactam N-11), the figures for the concentration for half-maximal inhibition (IC50) in experiment [1] and in experiment [2] were 50 to 100 nM and 0.69 nM, respectively.
On the same counts, the results for `CC[C@H](C)[C@@H]1NC(=O)[C@H](CC)N(C)C(=O)C[C@@H](C(=O)N2C3CCC2COC3)N(C)C(=O)[C@H](C2CCCCC2)N(C)C(=O)C2(CCCC2)NC(=O)[C@@H]2CCCN2C(=O)[C@H](CCc2ccc(C(F)(F)F)c(Cl)c2)NC(=O)CN(C)C(=O)[C@H](Cc2ccc(C(F)(F)F)cc2)N(C)C(=O)CN(C)C(=O)CN(C)C1=O` [Compound 1993] ([NMeAbu]I[Sar][Sar][NMePhe(4-CF3)][Sar][hPhe(3-Cl-4-CF3)]P[Ac5c][NMeChg][NMeD]-{3Oxa8azabicyclo(3.2.1)octane}; lactam N-11) are 50 to 100 nM and 0.64 nM.
In the case of `CCC[C@H]1C(=O)N[C@@H]([C@@H](C)CC)C(=O)N(C)CC(=O)N(C)CC(=O)N(C)[C@@H](Cc2ccc(C)cc2)C(=O)N(C)CC(=O)N[C@@H](CCc2ccc(C(F)(F)F)c(Cl)c2)C(=O)N2CCC[C@H]2C(=O)NC2(CCCC2)C(=O)N(C)[C@@H](C2CCCCC2)C(=O)N(C)[C@H](C(=O)N2C3CCC2COC3)CC(=O)N1C` [Compound 1994] ([NMeNva]I[Sar][Sar][NMePhe(4-Me)][Sar][hPhe(3-Cl-4-CF3)]P[Ac5c][NMeChg][NMeD]-{3Oxa8azabicyclo(3.2.1)octane}; lactam N-11), the figures for the half-inhibitory concentration (IC50) in experiment [1] and in experiment [2] were 50 to 100 nM and 0.58 nM, respectively.
For `CCC[C@H]1C(=O)N[C@@H]([C@@H](C)CC)C(=O)N(C)CC(=O)N(C)CC(=O)N(C)[C@@H](CC2CCCCC2)C(=O)N(C)CC(=O)N[C@@H](CCc2ccc(C(F)(F)F)c(Cl)c2)C(=O)N2CCC[C@H]2C(=O)NC2(CCCC2)C(=O)N(C)[C@@H](C2CCCCC2)C(=O)N(C)[C@H](C(=O)N2CCOCC2)CC(=O)N1C` [Compound 1996] ([NMeNva]I[Sar][Sar][NMeCha][Sar][hPhe(3-Cl-4-CF3)]P[Ac5c][NMeChg][NMeD]-Morpholide; lactam N-11), in that order: 20 to 50 nM and 0.64 nM.
For `CCC[C@H]1C(=O)N[C@@H]([C@@H](C)CC)C(=O)N(C)CC(=O)N(C)CC(=O)N(C)[C@@H](CC2CCCC2)C(=O)N(C)CC(=O)N[C@@H](CCc2ccc(C(F)(F)F)c(Cl)c2)C(=O)N2CCC[C@H]2C(=O)NC2(CCCC2)C(=O)N(C)[C@@H](C2CCCCC2)C(=O)N(C)[C@H](C(=O)N2CCOCC2)CC(=O)N1C` [Compound 1998] ([NMeNva]I[Sar][Sar][NMeAla(cPent)][Sar][hPhe(3-Cl-4-CF3)]P[Ac5c][NMeChg][NMeD]-Morpholide; lactam N-11), in that order: 100 to 500 nM and 0.75 nM.
On to `CC[C@H](C)[C@@H]1NC(=O)[C@H](CC)N(C)C(=O)C[C@@H](C(=O)N2CCOCC2)N(C)C(=O)[C@H](C2CCCCC2)N(C)C(=O)C2(CCCC2)NC(=O)[C@@H]2CCCN2C(=O)[C@H](CCc2ccc(C(F)(F)F)c(Cl)c2)NC(=O)CN(C)C(=O)[C@H](CC2CCCC2)N(C)C(=O)CN(C)C(=O)CN(C)C1=O` [Compound 1999] ([NMeAbu]I[Sar][Sar][NMeAla(cPent)][Sar][hPhe(3-Cl-4-CF3)]P[Ac5c][NMeChg][NMeD]-Morpholide; lactam N-11), for which the IC50 in experiment [1] is 100 to 500 nM; in experiment [2] it was 0.82 nM.
For `CCC[C@H]1C(=O)N[C@@H]([C@@H](C)CC)C(=O)N(C)CC(=O)N(C)CC(=O)N(C)[C@@H](Cc2ccc(C)cc2)C(=O)N(C)CC(=O)N[C@@H](CCc2ccc(C(F)(F)F)c(Cl)c2)C(=O)N2CCC[C@H]2C(=O)NC2(CCCC2)C(=O)N(C)[C@@H](C2CCCCC2)C(=O)N(C)[C@H](C(=O)N2CCCC2)CC(=O)N1C` [Compound 2004] ([NMeNva]I[Sar][Sar][NMePhe(4-Me)][Sar][hPhe(3-Cl-4-CF3)]P[Ac5c][NMeChg][NMeD]-Pyrrolidide; lactam N-11), in that order: 20 to 50 nM and 0.33 nM.
For `CCCOC[C@H]1C(=O)N(C)CC(=O)N[C@@H](CCc2ccc(C(F)(F)F)c(Cl)c2)C(=O)N2CCC[C@H]2C(=O)NC2(CCCC2)C(=O)N(C)[C@@H](C2CCCCC2)C(=O)N(C)[C@H](C(=O)N2CCCC2)CC(=O)N(C)[C@@H](CCC)C(=O)N[C@@H]([C@@H](C)CC)C(=O)N(C)CC(=O)N(C)CC(=O)N1C` [Compound 2005] ([NMeNva]I[Sar][Sar][NMeS](Propyl)[Sar][hPhe(3-Cl-4-CF3)]P[Ac5c][NMeChg][NMeD]-Pyrrolidide; lactam N-11), in that order: 50 to 100 nM and 0.64 nM.
For `CCCOC[C@H]1C(=O)N(C)CC(=O)N[C@@H](CCc2ccc(C(F)(F)F)c(Cl)c2)C(=O)N2CCC[C@H]2C(=O)NC2(CCCC2)C(=O)N(C)[C@@H](C2CCCCC2)C(=O)N(C)[C@H](C(=O)N2CCCC2)CC(=O)N(C)[C@@H](CC(C)C)C(=O)N[C@@H]([C@@H](C)CC)C(=O)N(C)CC(=O)N(C)CC(=O)N1C` [Compound 2006] ([NMeL]I[Sar][Sar][NMeS](Propyl)[Sar][hPhe(3-Cl-4-CF3)]P[Ac5c][NMeChg][NMeD]-Pyrrolidide; lactam N-11), in that order: 50 to 100 nM and 0.62 nM.
Turning to `CC[C@H](C)[C@@H]1NC(=O)[C@H](C)N(C)C(=O)C[C@@H](C(=O)N2CCCCC2)N(C)C(=O)[C@H](C(C)C)N(C)C(=O)C2(CCCC2)NC(=O)[C@@H]2CCCN2C(=O)[C@H](CCc2cc(Cl)c(Cl)c(OC)c2)NC(=O)CN(C)C(=O)[C@H](CC2CCCCC2)N(C)C(=O)CN(C)C(=O)CN(C)C1=O` [Compound 2061] ([NMeA]I[Sar][Sar][NMeCha][Sar][X15]P[Ac5c][NMeV][NMeD]-Piperidide; lactam N-11), the 50% inhibitory concentration (IC50) in experiment [1] was more than 500 nM; in experiment [2], 21 nM.
For `CC[C@H](C)[C@@H]1NC(=O)[C@H](CC(C)C)N(C)C(=O)C[C@@H](C(=O)N2CCCCC2)N(C)C(=O)[C@H](C2CCCC2)N(C)C(=O)C2(CCCC2)NC(=O)[C@@H]2CCCN2C(=O)[C@H](CCc2ccc3c(ccn3C)c2)NC(=O)CN(C)C(=O)[C@H](CC2CCCCC2)N(C)C(=O)[C@@H]2CCN2C(=O)[C@H](C)N(C)C1=O` [Compound 2064] ([NMeL]I[NMeA][Aze][NMeCha][Sar][X49]P[Ac5c][NMeGly(cPent)][NMeD]-Piperidide; lactam N-11), in that order: 100 to 500 nM and 12 nM.
For `CCCCOc1cc(CC[C@@H]2NC(=O)CN(C)C(=O)[C@H](CC3CCCCC3)N(C)C(=O)CN(C)C(=O)CN(C)C(=O)[C@H]([C@@H](C)CC)NC(=O)[C@H](C)N(C)C(=O)C[C@@H](C(=O)N3CCCCC3)N(C)C(=O)[C@H](C3CCCCC3)N(C)C(=O)C3(CCCC3)NC(=O)[C@@H]3CCCN3C2=O)cc(Cl)c1Cl` [Compound 2066] ([NMeA]I[Sar][Sar][NMeCha][Sar][X28]P[Ac5c][NMeChg][NMeD]-Piperidide; lactam N-11), in that order: more than 500 nM and 63 nM.
On the same counts, the results for `CC[C@H](C)[C@@H]1NC(=O)[C@H](C)N(C)C(=O)C[C@@H](C(=O)N2CCCCC2)N(C)C(=O)[C@H](C(C)C)N(C)C(=O)C2(CCCC2)NC(=O)[C@@H]2CCCN2C(=O)[C@H](CCc2cc(Cl)c(Cl)c(C#N)c2)NC(=O)CN(C)C(=O)[C@H](CC2CCCCC2)N(C)C(=O)CN(C)C(=O)CN(C)C1=O` [Compound 2071] ([NMeA]I[Sar][Sar][NMeCha][Sar][X29]P[Ac5c][NMeV][NMeD]-Piperidide; lactam N-11) are more than 500 nM and 9.2 nM.
Take `CC[C@H](C)[C@@H]1NC(=O)[C@H](C)N(C)C(=O)C[C@@H](C(=O)N2CCCCC2)N(C)C(=O)[C@H](C(C)C)N(C)C(=O)C2(CCCC2)NC(=O)[C@@H]2CCCN2C(=O)[C@H](CCc2cc(Cl)c(Cl)c(OC(C)(C)C)c2)NC(=O)CN(C)C(=O)[C@H](CC2CCCCC2)N(C)C(=O)CN(C)C(=O)CN(C)C1=O` [Compound 2073] ([NMeA]I[Sar][Sar][NMeCha][Sar][X19]P[Ac5c][NMeV][NMeD]-Piperidide; lactam N-11): the IC50 was more than 500 nM in experiment [1] and 12 nM in experiment [2].
On the same counts, the results for `CC[C@H](C)[C@@H]1NC(=O)[C@H](C)N(C)C(=O)C[C@@H](C(=O)N2CCCCC2)N(C)C(=O)[C@H](C2CCCCC2)N(C)C(=O)C2(CCCC2)NC(=O)[C@@H]2CCCN2C(=O)[C@H](CCc2cc(Cl)c(Cl)c(C#N)c2)NC(=O)CN(C)C(=O)[C@H](CC2CCCCC2)N(C)C(=O)CN(C)C(=O)CN(C)C1=O` [Compound 2075] ([NMeA]I[Sar][Sar][NMeCha][Sar][X29]P[Ac5c][NMeChg][NMeD]-Piperidide; lactam N-11) are more than 500 nM and 1.1 nM.
On the same counts, the results for `CC[C@H](C)[C@@H]1NC(=O)[C@H](C)N(C)C(=O)C[C@@H](C(=O)N2CCCCC2)N(C)C(=O)[C@H](C2CCCCC2)N(C)C(=O)C2(CCCC2)NC(=O)[C@@H]2CCCN2C(=O)[C@H](CCc2cc(Cl)c(Cl)c(OC)c2)NC(=O)CN(C)C(=O)[C@H](CC2CCCCC2)N(C)C(=O)CN(C)C(=O)CN(C)C1=O` [Compound 2081] ([NMeA]I[Sar][Sar][NMeCha][Sar][X15]P[Ac5c][NMeChg][NMeD]-Piperidide; lactam N-11) are more than 500 nM and 2 nM.

The record behind these values is patent US12371454B2, “Cyclic peptide compound having Kras inhibitory action” (priority 2019, dated 2025).
